Results: the supplement of paper PMC10307832

Columns and labels:
Test in all cases: relative viability (nuclei count vs DMSO), 5 days (fraction); higher = more cells survive
Decitabine + Palbociclib = compound: Nc1ncn([C@H]2C[C@H](O)[C@@H](CO)O2)c(=O)n1 [Decitabine] + CC(=O)c1c(C)c2cnc(Nc3ccc(N4CCNCC4)cn3)nc2n(C2CCCC2)c1=O [Palbociclib] (partner 0.5 µM)
Procedure, shortened: (§1)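 Lung cancer cell lines in 1536-well plates got either a single drug or a fixed anchor-drug dose together with five library-drug doses (not always all listed) in √10 steps, by pin tool, on the day after seeding. Nuclei were counted after 5 days, and relative viability is the treated-to-vehicle ratio of nuclei counts. Values are medians of duplicate plates.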

Cediranib + Dasatinib = compound: COc1cc2c(Oc3ccc4[nH]c(C)cc4c3F)ncnc2cc1OCCCN1CCCC1 [Cediranib] + Cc1nc(Nc2ncc(C(=O)Nc3c(C)cccc3Cl)s2)cc(N2CCN(CCO)CC2)n1 [Dasatinib] (partner 0.075 µM)
Procedure, shortened: as §1

[1] = compound: O=C(C[C@H]1NCCC[C@@H]1O)Cn1cnc2cc(Br)c(Cl)cc2c1=O (racemic) [Halofuginone] + CC(=O)c1c(C)c2cnc(Nc3ccc(N4CCNCC4)cn3)nc2n(C2CCCC2)c1=O [Palbociclib] (partner 0.5 µM)
Procedure, shortened: as §1

[2] = compound: O=C(C[C@H]1NCCC[C@@H]1O)Cn1cnc2cc(Br)c(Cl)cc2c1=O (racemic) [Halofuginone] + C[C@@H](Oc1cc(-c2cnn(C3CCNCC3)c2)cnc1N)c1c(Cl)ccc(F)c1Cl [Crizotinib] (partner 1 µM)
Procedure, shortened: as §1

| Cell Line | relative viability (Decitabine + Palbociclib; first compound 0.04 µM) | relative viability (Decitabine + Palbociclib; first compound 0.1265 µM) | relative viability (Decitabine + Palbociclib; first compound 0.4 µM) | relative viability (Decitabine + Palbociclib; first compound 1.265 µM) | relative viability (Decitabine + Palbociclib; first compound 4 µM) | relative viability (Cediranib + Dasatinib; first compound 0.04 µM) | relative viability (Cediranib + Dasatinib; first compound 0.1265 µM) | relative viability (Cediranib + Dasatinib; first compound 0.4 µM) | relative viability (Cediranib + Dasatinib; first compound 1.265 µM) | relative viability (Cediranib + Dasatinib; first compound 4 µM) | relative viability ([1]; first compound 0.001 µM) | relative viability ([1]; first compound 0.003162 µM) | relative viability ([1]; first compound 0.01 µM) | relative viability ([1]; first compound 0.03162 µM) | relative viability ([1]; first compound 0.1 µM) | relative viability ([2]; first compound 0.001 µM) | relative viability ([2]; first compound 0.003162 µM) | relative viability ([2]; first compound 0.01 µM) | relative viability ([2]; first compound 0.03162 µM) | relative viability ([2]; first compound 0.1 µM) |
| --- | --- | --- | --- | --- | --- | --- | --- | --- | --- | --- | --- | --- | --- | --- | --- | --- | --- | --- | --- | --- |
| COR-L23 | 0.212 | 0.237 | 0.196 | 0.145 | 0.153 | 0.522 | 0.503 | 0.499 | 0.57 | 0.662 | 0.328 | 0.303 | 0.344 | 0.292 | 0.139 | 0.822 | 0.78 | 0.624 | 0.62 | 0.0779 |
| NCI-H2085 | 0.465 | 0.403 | 0.408 | 0.335 | 0.395 | 0.257 | 0.26 | 0.273 | 0.272 | 0.23 | 0.521 | 0.461 | 0.458 | 0.461 | 0.487 | 0.994 | 0.82 | 0.776 | 0.831 | 0.52 |
| NCI-H2087 | 0.204 | 0.265 | 0.204 | 0.202 | 0.221 | 0.872 | 0.953 | 0.801 | 0.944 | 0.905 | 0.254 | 0.22 | 0.189 | 0.22 | 0.2 | 0.738 | 0.902 | 0.77 | 0.851 | 0.851 |
| HCC-366 | 0.306 | 0.244 | 0.175 | 0.0803 | 0.0669 | 0.649 | 0.622 | 0.553 | 0.636 | 0.711 | 0.363 | 0.472 | 0.351 | 0.358 | 0.14 | 0.759 | 0.515 | 0.607 | 0.544 | 0.0412 |
| NCI-H2126 | 0.367 | 0.354 | 0.313 | 0.36 | 0.372 | 0.634 | 0.569 | 0.609 | 0.554 | 0.543 | 0.362 | 0.344 | 0.347 | 0.346 | 0.354 | 1.02 | 1.03 | 0.998 | 1.02 | 0.987 |
| SK-LU-1 | 0.39 | 0.342 | 0.325 | 0.345 | 0.303 | 0.184 | 0.244 | 0.175 | 0.175 | 0.202 | 0.389 | 0.439 | 0.369 | 0.368 | 0.319 | 1.25 | 0.978 | 0.836 | 0.927 | 0.325 |
| HCC-78 | 0.483 | 0.554 | 0.487 | 0.436 | 0.423 | 0.376 | 0.363 | 0.405 | 0.29 | 0.406 | 0.516 | 0.519 | 0.497 | 0.488 | 0.551 | 0.396 | 0.356 | 0.314 | 0.341 | 0.237 |
| LCLC-97TM1 | 0.207 | 0.197 | 0.171 | 0.152 | 0.22 | 0.893 | 0.81 | 0.799 | 0.876 | 0.834 | 0.3 | 0.194 | 0.257 | 0.239 | 0.219 | 0.394 | 0.297 | 0.31 | 0.266 | 0.237 |
| NCI-H838 | 0.259 | 0.275 | 0.194 | 0.211 | 0.199 | 0.292 | 0.268 | 0.285 | 0.241 | 0.315 | 0.234 | 0.25 | 0.199 | 0.171 | 0.0921 | 0.904 | 0.799 | 0.815 | 0.718 | 0.134 |
| NCI-H520 | 0.22 | 0.23 | 0.204 | 0.17 | 0.184 | 0.264 | 0.238 | 0.162 | 0.155 | 0.174 | 0.191 | 0.222 | 0.208 | 0.232 | 0.2 | 0.764 | 0.808 | 0.749 | 0.693 | 0.316 |
| NCI-H2347 | 0.462 | 0.417 | 0.411 | 0.423 | 0.437 | 0.262 | 0.288 | 0.268 | 0.277 | 0.381 | 0.44 | 0.453 | 0.513 | 0.438 | 0.332 | 0.677 | 0.72 | 0.81 | 0.736 | 0.551 |
| NCI-H441 | 0.214 | 0.198 | 0.183 | 0.138 | 0.205 | 0.466 | – | 0.678 | 0.559 | 0.772 | 0.254 | 0.241 | 0.206 | 0.241 | 0.152 | 0.967 | 1.1 | 0.677 | 0.694 | 0.311 |
| NCI-H1944 | 0.331 | 0.32 | 0.313 | 0.294 | 0.281 | 0.216 | 0.227 | 0.221 | 0.193 | 0.236 | 0.286 | 0.362 | 0.313 | 0.357 | 0.293 | 1.1 | 1.19 | 1.11 | 1.05 | 0.803 |
| NCI-H2405 | 0.511 | 0.516 | 0.436 | 0.397 | 0.349 | 0.2 | 0.583 | 0.227 | 0.196 | 0.218 | 0.573 | 0.565 | 0.527 | 0.498 | 0.424 | 0.907 | 0.935 | 0.822 | 0.831 | 0.74 |
| HCC-15 | 0.776 | 0.591 | 0.412 | 0.38 | 0.441 | 0.662 | – | 0.585 | 0.707 | 0.608 | 0.802 | 0.823 | 0.731 | 0.713 | 0.65 | 0.827 | 0.887 | 0.737 | 0.826 | 0.657 |
